AC50 data for 23 molecules are collected here from patent publication US20250171437A1 (Agios Pharmaceuticals,Inc., priority 2022, published 2025).

Molecules are shown by their SMILES.

One assay deals with T1, human PAH with the R408W mutation (A375 R408W cells) (Homo sapiens, UniProt P00439, R408W).
T1 construct: expressed in transfected cells
T1 sequence (P00439 1-452 R408W): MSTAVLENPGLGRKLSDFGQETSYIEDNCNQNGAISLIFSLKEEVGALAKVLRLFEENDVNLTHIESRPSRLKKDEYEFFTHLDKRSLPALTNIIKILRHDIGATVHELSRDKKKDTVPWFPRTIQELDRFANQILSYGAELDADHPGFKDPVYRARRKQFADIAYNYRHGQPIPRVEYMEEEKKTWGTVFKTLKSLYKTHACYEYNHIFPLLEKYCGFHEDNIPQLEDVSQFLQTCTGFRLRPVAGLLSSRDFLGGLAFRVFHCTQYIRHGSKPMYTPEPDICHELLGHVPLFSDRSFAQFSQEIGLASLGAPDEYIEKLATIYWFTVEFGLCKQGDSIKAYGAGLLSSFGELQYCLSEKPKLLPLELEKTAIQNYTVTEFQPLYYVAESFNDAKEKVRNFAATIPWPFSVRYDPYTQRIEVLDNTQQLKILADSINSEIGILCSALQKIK
The assay can be described thus: Cell Based Phenylalanine Flux Assay. The settings on record: A375 R408W cells; 24 hrs with compound, then 20 μM sepiapterin and 800 μM 13C9,15N-Phenylalanine for 4 hours; 13C-Tyrosine by LC-MS; average where tested multiple times. In short, it runs like this: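 LC-MS quantitation of 13C-tyrosine in media gave AC50 values. Stable A375 R408W PAH cells were preincubated 24 h with compound, then fed 800 μM labelled Phe plus 20 μM sepiapterin for 4 h. Dose curves were 10-point, tested in duplicate, averaged over repeat runs.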
`O=C(c1nnc(-c2ccn(C(F)F)n2)o1)N1CCc2[nH]cnc2[C@@H]1c1nc2c(F)ccc(F)c2o1` [Example 815, (R)-(4-(4,7-difluorobenzo[d]oxazol-2-yl)-6,7-dihydro-1H-imidazo[4,5-c]pyridin-5(4H)-yl)(5-(1-(difluoromethyl)-1H-pyrazol-3-yl)-1,3,4-oxadiazol-2-yl)methanone]: the AC50 fell in the range of 500 to 1000 nM.
On to `O=C(c1ocnc1C(F)(F)F)N1CCc2[nH]cnc2[C@@H]1c1nc2c(F)ccc(F)c2o1` [Example 796, (R)-(4-(4,7-difluorobenzo[d]oxazol-2-yl)-6,7-dihydro-1H-imidazo[4,5-c]pyridin-5(4H)-yl)(4-(trifluoromethyl)oxazol-5-yl)methanone], for which the AC50 fell in the range of 500 to 1000 nM.
Turning to `CC(C)(O)c1nc(Br)c(C(=O)N2CCc3[nH]cnc3[C@@H]2c2nc3cccc(F)c3o2)o1` [Example 264, (R)-(4-bromo-2-(2-hydroxypropan-2-yl)oxazol-5-yl)(4-(7-fluorobenzo[d]oxazol-2-yl)-6,7-dihydro-1H-imidazo[4,5-c]pyridin-5(4H)-yl)methanone], the AC50 is 500 to 1000 nM.
With `O=C(c1ocnc1CC(F)F)N1CCc2[nH]cnc2[C@@H]1c1nc2ccccc2o1` [Example 874, (R)-(4-(benzo[d]oxazol-2-yl)-6,7-dihydro-1H-imidazo[4,5-c]pyridin-5(4H)-yl)(4-(2,2-difluoroethyl)oxazol-5-yl)methanone], the AC50 was 500 to 1000 nM.
The same measure, in the same setting: under `O=C(c1nnc(-c2ccccn2)o1)N1CCc2[nH]cnc2[C@H]1c1nc2cccc(F)c2o1` [Example 335, (S)-(4-(7-fluorobenzo[d]oxazol-2-yl)-6,7-dihydro-1H-imidazo[4,5-c]pyridin-5(4H)-yl)(5-(pyridin-2-yl)-1,3,4-oxadiazol-2-yl)methanone] stands not above 500 nM; under `O=C(c1ccnn1CC(F)F)N1CCc2[nH]cnc2[C@@H]1c1nc2c(F)cccc2o1` [Example 849, (R)-(1-(2,2-difluoroethyl)-1H-pyrazol-5-yl)(4-(4-fluorobenzo[d]oxazol-2-yl)-6,7-dihydro-1H-imidazo[4,5-c]pyridin-5(4H)-yl)methanone], not above 500 nM; under `O=C(c1nnc(-c2ccn(C(F)F)n2)o1)N1CCc2[nH]cnc2[C@H]1c1nc2cc(F)ccc2o1` [Example 113, (S)-(5-(1-(difluoromethyl)-1H-pyrazol-3-yl)-1,3,4-oxadiazol-2-yl)(4-(5-fluorobenzo[d]oxazol-2-yl)-6,7-dihydro-1H-imidazo[4,5-c]pyridin-5(4H)-yl)methanone], 1000 to 5000 nM.
Still for that read-out and setting: the result for `O=C(c1nnc(-c2ccc(F)cn2)o1)N1CCc2[nH]cnc2[C@@H]1c1nc2cc(F)ccc2o1` [Example 34, (R)-(4-(5-fluorobenzo[d]oxazol-2-yl)-6,7-dihydro-1H-imidazo[4,5-c]pyridin-5(4H)-yl)(5-(5-fluoropyridin-2-yl)-1,3,4-oxadiazol-2-yl)methanone] reads 1000 to 5000 nM.
As to `O=C(CCc1cncs1)N1CCc2[nH]cnc2[C@@H]1c1nc2cccc(F)c2o1` [Example 410, (R)-1-(4-(7-fluorobenzo[d]oxazol-2-yl)-6,7-dihydro-1H-imidazo[4,5-c]pyridin-5(4H)-yl)-3-(thiazol-5-yl)propan-1-one], the AC50 lay within 1000 to 5000 nM.
For `COc1cccc2oc([C@@H]3c4nc[nH]c4CCN3C(=O)c3cnco3)nc12` [Example 621, (S)-(4-(4-methoxybenzo[d]oxazol-2-yl)-6,7-dihydro-1H-imidazo[4,5-c]pyridin-5(4H)-yl)(oxazol-5-yl)methanone], the AC50 was 500 to 1000 nM.
With `CC(C)(O)c1nc(C(F)(F)F)c(C(=O)N2CCc3[nH]cnc3[C@H]2c2nc3cc(F)ccc3o2)o1` [Example 45, (S)-(4-(5-fluorobenzo[d]oxazol-2-yl)-6,7-dihydro-1H-imidazo[4,5-c]pyridin-5(4H)-yl)(2-(2-hydroxypropan-2-yl)-4-(trifluoromethyl)oxazol-5-yl)methanone], the AC50 is not above 500 nM.
The same measure, in the same setting: under `O=C(c1ocnc1C(F)F)N1CCc2[nH]cnc2[C@H]1c1nc2c(C(F)(F)F)cccc2o1` [Example 465, (S)-(4-(difluoromethyl)oxazol-5-yl)(4-(4-(trifluoromethyl)benzo[d]oxazol-2-yl)-6,7-dihydro-1H-imidazo[4,5-c]pyridin-5(4H)-yl)methanone] stands not above 500 nM; under `Cc1ccc2oc([C@@H]3c4nc[nH]c4CCN3C(=O)c3oc(C(C)(C)O)nc3C(F)F)nc2c1` [Example 311, (S)-(4-(difluoromethyl)-2-(2-hydroxypropan-2-yl)oxazol-5-yl)(4-(5-methylbenzo[d]oxazol-2-yl)-6,7-dihydro-1H-imidazo[4,5-c]pyridin-5(4H)-yl)methanone], not above 500 nM; under `CC(C)(O)c1nc(Br)c(C(=O)N2CCc3[nH]cnc3[C@H]2c2nc3cc(F)ccc3o2)o1` [Example 124, (S)-(4-bromo-2-(2-hydroxypropan-2-yl)oxazol-5-yl)(4-(5-fluorobenzo[d]oxazol-2-yl)-6,7-dihydro-1H-imidazo[4,5-c]pyridin-5(4H)-yl)methanone], 500 to 1000 nM.
As for `O=C(c1oc(-c2ccc(C(F)(F)F)cn2)nc1C(F)F)N1CCc2[nH]cnc2[C@@H]1c1nc2cc(F)ccc2o1` [Example 443, (R)-(4-(difluoromethyl)-2-(5-(trifluoromethyl)pyridin-2-yl)oxazol-5-yl)(4-(5-fluorobenzo[d]oxazol-2-yl)-6,7-dihydro-1H-imidazo[4,5-c]pyridin-5(4H)-yl)methanone], the AC50 was in the range of 500 to 1000 nM.
Turning to `O=C(c1oc(C2(O)CC2)nc1C(F)F)N1CCc2[nH]cnc2[C@@H]1c1nc2ccc(F)cc2o1` [Example 238, (R)-(4-(difluoromethyl)-2-(1-hydroxycyclopropyl)oxazol-5-yl)(4-(6-fluorobenzo[d]oxazol-2-yl)-6,7-dihydro-1H-imidazo[4,5-c]pyridin-5(4H)-yl)methanone], the AC50 was 1000 to 5000 nM.
Consider `C[C@H](O)c1nc(C(F)F)c(C(=O)N2CCc3[nH]cnc3[C@H]2c2nc3ccc(F)cc3o2)o1` [Example 231, (4-(difluoromethyl)-2-((S)-1-hydroxyethyl)oxazol-5-yl)((S)-4-(6-fluorobenzo[d]oxazol-2-yl)-6,7-dihydro-1H-imidazo[4,5-c]pyridin-5(4H)-yl)methanone], for which the AC50 was 500 to 1000 nM.
Still for that read-out and setting: under `Cn1cc(-c2nnc(C(=O)N3CCc4[nH]cnc4[C@@H]3c3nc4c(F)cccc4o3)o2)cn1` [Example 198, (R)-(4-(4-fluorobenzo[d]oxazol-2-yl)-6,7-dihydro-1H-imidazo[4,5-c]pyridin-5(4H)-yl)(5-(1-methyl-1H-pyrazol-4-yl)-1,3,4-oxadiazol-2-yl)methanone] stands 1000 to 5000 nM.

Still in this assay, the particulars now being: A375 cells expressing R408W PAH; 24 hrs with compound, then 20 μM sepiapterin and 800 μM 13C9,15N-Phenylalanine for 4 hours; 13C-Tyrosine by LC-MS; average where tested multiple times.
Consider `Cn1cncc1-c1nnc(C(=O)N2CCc3[nH]cnc3C2c2nc3cc(F)ccc3o2)o1` (centres unmarked), for which the AC50 was in the range of 1000 to 5000 nM.
On to `CN(C)Cc1ccc2c(C(=O)N3CCc4[nH]cnc4C3c3nc4cc(F)ccc4o3)cnn2c1` (centres unmarked), for which the AC50 is not below 5000 nM.
Turning to `Cc1ccc2nc(C3c4nc[nH]c4CCN3C(=O)c3cnn4cc(CCN(C)C)ccc34)oc2c1` (centres unmarked), the AC50 was not below 5000 nM.
Take `O=C(c1cnn2cc(N3CCC(F)CC3)ccc12)N1CCc2[nH]cnc2C1c1nc2cc(F)ccc2o1` (centres unmarked): the concentration at half-maximal activity (AC50) is not below 5000 nM.
For the molecule `CC(C)(O)c1nc(C(F)F)c(CN2CCc3[nH]cnc3C2c2nc3cc(F)ccc3o2)o1` (centres unmarked), the AC50 is not below 5000 nM.

A word on the AC50: it is the midpoint of the concentration-response curve, whichever way the signal moves.
